In US4163784A, “Heterocyclylcarbonyl derivatives of urea, agents for dissolution of gallstones” (Pfizer Inc., priority 1978, dated 1979):

How the values were obtained:
[1] = test system: pathogenic cholelithiasis process; conditions: in man; cited from earlier work
[2] = test system: male CD-1 mice; assay: acute toxicity, single intraperitoneal dose; assay type: in vivo; conditions: 1000 mg./kg. single i.p. dose, 0.6% Tween 20, 10 mice per group, observed one week
Protocol: The compounds were tested for acute toxicity in the following manner. Healthy male CD-1 mice (20-25 g.), 10 mice per group, received a single high dose of drug by intraperitoneal administration (1000 mg./kg., in 0.6% Tween 20, at a concentration of 70 mg./ml.). (Tween 20, polyoxyethylene sorbitan monolaurate, available from Atlas Chemical Industries, Inc.). The animals were observed continuously for at least two hours, again at 24 hours and daily thereafter for one week. Controls received vehicle alone, […]. and were asymptomatic throughout. The compounds tested and the widely varying mortality rates observed are tabulated below.

[3] = test system: male CD-1 mice; assay: seven-day chronic toxicity test (hepatotoxicity); assay type: in vivo; conditions: 500 mg./kg. daily orally in 0.1% methyl cellulose for 5 days
[4] = test system: dogs; assay: oral administration at high dose to dogs, toxicity; assay type: in vivo; conditions: 250 mg./kg.
[5] = test system: rats; assay: oral administration at high dose to rats, toxicity; assay type: in vivo; conditions: same high dose as dogs (250 mg./kg.)

| Structure (SMILES) | Mortality Rate [2] | hepatotoxicity [3] | also measured |
| --- | --- | --- | --- |
| C[C@H](CCC(=O)O)[C@H]1CC[C@H]2[C@@H]3[C@H](O)C[C@@H]4C[C@H](O)CC[C@]4(C)[C@H]3CC[C@]12C [chenodeoxycholic acid] |  |  | prevention and reversal of the pathogenic cholelithiasis process [1]: prevention and even reversal of the pathogenic cholelithiasis process in man |
| O=C(NC(=O)N1CC=CCC1)c1cccnc1 [3-pyridyl, 1-(1,2,3,6-tetrahydropyridyl)] | 9/10 |  |  |
| O=C(NC(=O)N1CC=CCC1)c1ccc(Cl)nc1 [6-Chloro-N-[1-(1,2,3,6-tetrahydropyridyl)carbonyl]nicotinamide] | 0/10 | produced hepatotoxicity | pathological signs in dogs [4]: pathological signs suggestive of cardiac impairment; toxic effects in dogs: death ([4]; ten times the projected efficacious dose): death of the dogs; toxicological symptoms in rats [5]: only moderate toxicological symptoms, including lethargy, diminished appetite and weight gain, and slight abnormalities in clinical chemistry |
| O=C(NCc1ccccc1)NC(=O)c1cccnc1Cl [2-chloro-N-(benzylaminocarbonyl)nicotinamide] | 0/10 | no hepatotoxicity |  |
| CCCCN(CCCC)C(=O)NC(=O)c1cncs1 [5-thiazolyl, N-(n-C 4 H9)2] | 4/10 |  |  |
| CCCCN(CCCC)C(=O)NC(=O)c1cccnc1 [3-pyridyl, N-(n-C 4 H9)2] | 10/10 |  |  |
